Data from ChEMBL document CHEMBL4483862, “Open-source discovery of chemical leads for next-generation chemoprotective antimalarials” (2018).

System: Plasmodium berghei
Experiment: Luciferase/luciferin-expressing antifolate-resistant parasites were used to infect a culture of HepG2 cells that were pre-incubated with compounds. Infected hepatocytes emit light due to the luciferase reaction. Assay results are presented as the percent inhibition of light emission compared to control. […]
Assay type: functional
Settings: sporozoite; for IC90: read-out: LUCIFERASE INFECTION ASSAY - IC90

Row | SMILES | IC90 [µM] | further results
1 | CCOc1ccc(-n2c(-c3ccc(Cl)cc3)c[n+]3c2SCC3)cc1 | 8.41 | IC50 (HEPG2TOX_HILL_SLOPE 17.5, HEPG2TOX_R_SQUARED 0.639, PBLUC_HILL_SLOPE 3.46, PBLUC_R_SQUARED 0.768, read-out: LUCIFERASE INFECTION ASSAY - IC50): 4.45 µM
2 | O=C(Nc1ccc(SC(F)(F)F)cc1)Nc1ccc(-n2ccc(C(F)(F)F)n2)cc1 | 2.69 | IC50 (HEPG2TOX_HILL_SLOPE 17.7, HEPG2TOX_R_SQUARED 0.761, PBLUC_HILL_SLOPE 20.9, PBLUC_R_SQUARED 0.513, read-out: LUCIFERASE INFECTION ASSAY - IC50): 2.42 µM
3 | Cn1nc(-c2ccc(C(=O)Nc3ccccc3)s2)cc1C(F)(F)F | 8.54 | IC50 (HEPG2TOX_HILL_SLOPE 17.1, HEPG2TOX_R_SQUARED 0.873, PBLUC_HILL_SLOPE 3.01, PBLUC_R_SQUARED 0.475, read-out: LUCIFERASE INFECTION ASSAY - IC50): 4.12 µM
4 | CCOc1cc(/C=C2\S/C(=N\C3CCCC3)NC2=O)cc(Br)c1OCC | 3.94 | IC50 (HEPG2TOX_HILL_SLOPE 17, HEPG2TOX_R_SQUARED 0.811, PBLUC_HILL_SLOPE 15.3, PBLUC_R_SQUARED 0.445, read-out: LUCIFERASE INFECTION ASSAY - IC50): 3.41 µM
5 | COc1cc(Nc2nccn3c(-c4ccc(OC(F)(F)F)cc4)cnc23)cc(OC)c1OC | 4.53 | IC50 (HEPG2TOX_HILL_SLOPE 16.8, HEPG2TOX_R_SQUARED 0.492, PBLUC_HILL_SLOPE 4.79, PBLUC_R_SQUARED 0.767, read-out: LUCIFERASE INFECTION ASSAY - IC50): 2.86 µM
6 | Cc1ccnc(NC(=O)Cc2cnn(-c3ccccc3)c2)c1 | 9.95 | IC50 (HEPG2TOX_HILL_SLOPE 17.5, HEPG2TOX_R_SQUARED 0.943, PBLUC_HILL_SLOPE 16.3, PBLUC_R_SQUARED 0.0531, read-out: LUCIFERASE INFECTION ASSAY - IC50): 8.7 µM
7 | CCOC(=O)N/N=C(\CC)c1ccc(-c2ccccc2F)cc1 | > 10.5 | IC50 (HEPG2TOX_HILL_SLOPE 16.9, HEPG2TOX_R_SQUARED 0.877, PBLUC_HILL_SLOPE 3.23, PBLUC_R_SQUARED 0.461, read-out: LUCIFERASE INFECTION ASSAY - IC50): 6.06 µM
8 | CC(=O)c1c(C)[nH]c(C(=O)Nc2ccc(Oc3ccccc3Cl)cc2)c1C | 7.08 | IC50 (HEPG2TOX_HILL_SLOPE 17, HEPG2TOX_R_SQUARED 0.739, PBLUC_HILL_SLOPE 1.26, 0.690, PBLUC_R_SQUARED 0.562, 0.913, read-out: LUCIFERASE INFECTION ASSAY - IC50): 0.831 µM
9 | COC(=O)c1sccc1Oc1ccc(C(F)(F)F)cc1NS(=O)(=O)c1cc(C(F)(F)F)cc(C(F)(F)F)c1 | 3.04 | IC50 (HEPG2TOX_HILL_SLOPE 17.5, HEPG2TOX_R_SQUARED 0.823, PBLUC_HILL_SLOPE 4.85, PBLUC_R_SQUARED 0.307, read-out: LUCIFERASE INFECTION ASSAY - IC50): 1.93 µM
10 | CN1CCN(c2ccc(-c3cn4c(-c5ccc6ncccc6c5)cnc4cn3)cc2)CC1 | 7.74 | IC50 (HEPG2TOX_HILL_SLOPE 17, HEPG2TOX_R_SQUARED 0.823, PBLUC_HILL_SLOPE 14.3, PBLUC_R_SQUARED 0.731, read-out: LUCIFERASE INFECTION ASSAY - IC50): 6.63 µM
11 | Cc1cc(C)nc(N/N=C/c2cn(-c3ccccc3)nc2-c2ccc3c(c2)OCCO3)n1 | 9.32 | IC50 (HEPG2TOX_HILL_SLOPE 17.9, HEPG2TOX_R_SQUARED 0.773, PBLUC_HILL_SLOPE 3.73, PBLUC_R_SQUARED 0.671, read-out: LUCIFERASE INFECTION ASSAY - IC50): 5.18 µM
12 | C=CCn1c(COc2ccc(CC)cc2)nnc1SCC(=O)/C(C#N)=C(\C)N | > 10 | IC50 (HEPG2TOX_HILL_SLOPE 17.4, HEPG2TOX_R_SQUARED 0.832, PBLUC_HILL_SLOPE 1.76, PBLUC_R_SQUARED 0.574, read-out: LUCIFERASE INFECTION ASSAY - IC50): 6.67 µM
13 | CN1/C(=C\C=N\NC(=O)c2ccccc2NS(=O)(=O)c2cccs2)C(C)(C)c2ccccc21 | 1.2 | IC50 (HEPG2TOX_HILL_SLOPE 16.9, HEPG2TOX_R_SQUARED 0.641, PBLUC_HILL_SLOPE 12.4, PBLUC_R_SQUARED 0.659, read-out: LUCIFERASE INFECTION ASSAY - IC50): 1.01 µM
14 | Cc1ccc(NC(=O)c2cccc(-c3ccc(O)cc3)c2)cc1Cl | 4.26 | IC50 (HEPG2TOX_HILL_SLOPE 17.8, HEPG2TOX_R_SQUARED 0.895, PBLUC_HILL_SLOPE 28.1, PBLUC_R_SQUARED 0.516, read-out: LUCIFERASE INFECTION ASSAY - IC50): 3.94 µM
15 | COc1cccc(Nc2nc(-c3ccc(CCC(C)NC(C)=O)cc3)cs2)c1 (configuration not stated) | 8.54 | IC50 (HEPG2TOX_HILL_SLOPE 17.1, HEPG2TOX_R_SQUARED 0.93, PBLUC_HILL_SLOPE 0.895, PBLUC_R_SQUARED 0.745, read-out: LUCIFERASE INFECTION ASSAY - IC50): 0.734 µM
16 | COC(=O)c1c(NC(=O)c2cccnc2)c2cc(NCC3CCCCC3)cnc2n1Cc1ccccc1 | > 6.63 | IC50 (HEPG2TOX_HILL_SLOPE 17.8, HEPG2TOX_R_SQUARED 0.594, PBLUC_HILL_SLOPE 8.22, PBLUC_R_SQUARED 0.247, read-out: LUCIFERASE INFECTION ASSAY - IC50): 5.43 µM

Row | SMILES | IC90 [µM] | further results
17 | CCS(=O)(=O)N1CCC(C(=O)Nc2nnc(-c3cccc([N+](=O)[O-])c3)o2)(c2ccccc2)CC1 | 4.58 | IC50 (HEPG2TOX_HILL_SLOPE 16.8, 22.3, HEPG2TOX_R_SQUARED 0.565, 0.956, PBLUC_HILL_SLOPE 8.45, PBLUC_R_SQUARED 0.439, read-out: LUCIFERASE INFECTION ASSAY - IC50): 3.53 µM
18 | COc1cncc(-c2cnn3ccc(Nc4ccc(Oc5ccccc5)cc4)nc23)c1 | > 8.06 | IC50 (HEPG2TOX_HILL_SLOPE 17.9, HEPG2TOX_R_SQUARED 0.509, PBLUC_HILL_SLOPE 0.505, PBLUC_R_SQUARED 0.666, read-out: LUCIFERASE INFECTION ASSAY - IC50): > 8.06 µM
19 | CC(C)C(C)CCC(C)C1CC=C2C3CCC4CC(O)CCC4(C)C3CCC21C (configuration not stated) | 0.344 | IC50 (HEPG2TOX_HILL_SLOPE 17.3, HEPG2TOX_R_SQUARED 0.943, PBLUC_HILL_SLOPE 11.3, PBLUC_R_SQUARED 0.846, read-out: LUCIFERASE INFECTION ASSAY - IC50): 0.284 µM
20 | O=C(/C(Br)=C/c1ccc([N+](=O)[O-])cc1)c1ccccc1 | > 10 | IC50 (HEPG2TOX_HILL_SLOPE 17, HEPG2TOX_R_SQUARED 0.837, PBLUC_HILL_SLOPE 13.5, PBLUC_R_SQUARED 0.0643, read-out: LUCIFERASE INFECTION ASSAY - IC50): 9.16 µM
21 | Cc1cc(C)c(NC(=O)c2cc(C)on2)c(C)c1 | > 10 | IC50 (HEPG2TOX_HILL_SLOPE 17.1, HEPG2TOX_R_SQUARED 0.826, PBLUC_HILL_SLOPE 16.1, PBLUC_R_SQUARED 0.022, read-out: LUCIFERASE INFECTION ASSAY - IC50): 9.8 µM
22 | Cc1cc(CN2CCc3ccccc3C2)c(C)cc1O | > 10 | IC50 (HEPG2TOX_HILL_SLOPE 17.5, HEPG2TOX_R_SQUARED 0.797, read-out: LUCIFERASE INFECTION ASSAY - IC50): > 10 µM
23 | Cc1cc(NC(=O)N2CCN(Cc3ccc(-c4ccccc4Cl)s3)CC2)no1 | > 10 | IC50 (HEPG2TOX_HILL_SLOPE 17.1, HEPG2TOX_R_SQUARED 0.65, PBLUC_HILL_SLOPE 0.759, PBLUC_R_SQUARED 0.724, read-out: LUCIFERASE INFECTION ASSAY - IC50): 1.19 µM
24 | CN(C)CCCN1C(=O)N(CCc2ccccc2)C2(CCN(Cc3cn(C)c4ccccc34)CC2)C1=O | 6.2 | IC50 (HEPG2TOX_HILL_SLOPE 17.2, HEPG2TOX_R_SQUARED 0.602, PBLUC_HILL_SLOPE 5.41, PBLUC_R_SQUARED 0.643, read-out: LUCIFERASE INFECTION ASSAY - IC50): 4.13 µM
25 | Cn1c(NCc2ccccc2)nc2cnc(Nc3cccc(Oc4ccccc4)c3)cc21 | 3.9 | IC50 (HEPG2TOX_HILL_SLOPE 16.8, HEPG2TOX_R_SQUARED 0.905, PBLUC_HILL_SLOPE 16.2, PBLUC_R_SQUARED 0.526, read-out: LUCIFERASE INFECTION ASSAY - IC50): 3.4 µM
26 | CCCNC(=O)c1c(NC(=O)c2ccc(F)cc2)nc2ccccn12 | 5.82 | IC50 (HEPG2TOX_HILL_SLOPE 16.9, HEPG2TOX_R_SQUARED 0.391, PBLUC_HILL_SLOPE 4.88, PBLUC_R_SQUARED 0.525, read-out: LUCIFERASE INFECTION ASSAY - IC50): 3.71 µM
27 | Cn1c(-c2ccccc2)c(/C=N/Nc2ccnc3cc(Cl)ccc23)c2ccccc21 | 6.47 | IC50 (HEPG2TOX_HILL_SLOPE 17.0, 5.95, HEPG2TOX_R_SQUARED 0.687, 0.986, PBLUC_HILL_SLOPE 1.29, PBLUC_R_SQUARED 0.592, read-out: LUCIFERASE INFECTION ASSAY - IC50): 1.17 µM
28 | Cc1nc(C2CC2)nc(SC(C)C)c1C#N | > 10 | IC50 (HEPG2TOX_HILL_SLOPE 17, HEPG2TOX_R_SQUARED 0.522, PBLUC_HILL_SLOPE 1.64, PBLUC_R_SQUARED 0.538, read-out: LUCIFERASE INFECTION ASSAY - IC50): 5.26 µM
29 | CCN(CC)c1ccc(Nc2nc(-c3ccncc3)cs2)cc1 | > 8.14 | IC50 (HEPG2TOX_HILL_SLOPE 17.3, HEPG2TOX_R_SQUARED 0.807, PBLUC_HILL_SLOPE 2.78, PBLUC_R_SQUARED 0.42, read-out: LUCIFERASE INFECTION ASSAY - IC50): 4.75 µM
30 | Fc1ccc(-c2cc3[nH]c(NCc4ccccc4)nc3cn2)cc1Cl | 5.42 | IC50 (HEPG2TOX_HILL_SLOPE 17.8, HEPG2TOX_R_SQUARED 0.722, PBLUC_HILL_SLOPE 354, PBLUC_R_SQUARED 0.159, read-out: LUCIFERASE INFECTION ASSAY - IC50): 5.38 µM
31 | O=C1C(=O)N(Cc2ccco2)C(=O)N1Cc1ccc(-c2ccccc2)cc1 | > 10 | IC50 (HEPG2TOX_HILL_SLOPE 17.7, HEPG2TOX_R_SQUARED 0.836, PBLUC_HILL_SLOPE 2.05, PBLUC_R_SQUARED 0.957, read-out: LUCIFERASE INFECTION ASSAY - IC50): 4.16 µM
